Measurements as given in US20100233532A1, “Composition for battery” (TOYO INK MFG. CO., LTD., priority 2007, published 2010).

experiment: Solubility of dispersants in purified water; assay type: physicochemical
Protocol: Evaluations of solubility were carried out by evaluating dispersants having solubility in purified water of 0.02% or more as “O” (soluble) and those having solubility of less than 0.02% as “x” (insoluble).

| Structure (SMILES) | Solubility in water |
| --- | --- |
| O=C1Cc2ccc(Nc3nc(Nc4ccc(C(=O)O)cc4)nc(Nc4ccc5[nH]c(=O)[nH]c5c4)n3)cc2C1 [Dispersant I] | Solubility in water: x (solubility of less than 0.02% as “x” (insoluble)) |
| Cc1ccc2cccc(Nc3nc(Nc4ccc(C(=O)O)cc4)nc(Nc4ccc(C(=O)O)cc4)n3)c2n1 [Dispersant J] | Solubility in water: x (solubility of less than 0.02% as “x” (insoluble)) |
| CC1(C)CC(Nc2nc(Nc3ccc(P(=O)(O)O)cc3)nc(Nc3ccc4[nH]c(=O)[nH]c4c3)n2)CC(C)(CNc2nc(Nc3ccc(P(=O)(O)O)cc3)nc(Nc3ccc4[nH]c(=O)[nH]c4c3)n2)C1 (stereo not shown) [Dispersant G] | Solubility in water: x (solubility of less than 0.02% as “x” (insoluble)) |
| Cc1ccc(Nc2nc(Nc3ccccc3)nc(Nc3ccc4[nH]c(=O)[nH]c4c3)n2)cc1S(=O)(=O)O [Dispersant A] | Salt forming substance: None Solubility in water: ∘ |
| O=P(O)(O)c1ccc(Nc2nc(Nc3ccc4ccccc4c3)nc(Nc3ccc4ccccc4c3)n2)cc1 [Dispersant F] | Salt forming substance: None Solubility in water: ∘ |
| CCn1c2ccccc2c2cc(Nc3nc(O)nc(Nc4ccc(O)c(C(=O)O)c4)n3)ccc21 [Dispersant H] | Salt forming substance: None Solubility in water: ∘ |
| O=C(O)c1cc2ccccc2c(N=Nc2ccc([N+](=O)[O-])cc2)c1O [Dispersant O] | Salt forming substance: None Solubility in water: ∘ |
